Series [1] relates to JR-FL gp41 NT 1-5 Env-pseudotyped virus. It is filed as cell-based, HIV-1 JR-FL. The note with it: U87.CD4.CCR5 cells; in nM for T-20. The method, then:
(§1) Pseudotyped virions bearing JR-FL envelope glycoproteins (WT and mutant) were produced by cotransfection of selected env clones with a luciferase-expressing reporter vector, pNL4-3Env(−)Luc(+), as described above. To measure infectivity, luciferase-expressing Env-pseudotyped viruses (50 μl) containing normalized amounts of p24 antigen were added to 3×10^3 U87.CD4.CCR5 cells/well. U87.CD4.CXCR4 cells were used as a negative control. After 4 days, th cells were lysed with 75 μl of 1× Glo lysis buffer (Promega, Calif.) for subsequent quantification of luciferase, which was expressed by the Env-pseudotyped virions that contain the gene for firefly luciferase inserted into the nef gene of HIV-1, using the Bright-Glo™ Luciferase Assay Substrate (Promega, Calif.) and a VICTOR3 1420 multilabel counter (Perkin Elmer Life Sciences, Mass.).
(§2) Neutralization of infectivity was performed as described previously (Trkola et al., 1998). The pseudovirions were incubated with an equal volume of various MAbs, CD4-IgG2, or T-20 for 1 hour at 37° C. before the residual infectivity was determined using U87.CD4.CCR5 cells as described above. The concentration of each inhibitor was expressed as the amount present after the inhibitor-virus mixture was added to the cells. The data were analyzed by non-linear regression (variable-slope sigmoidal dose response) to calculate the inhibitor concentrations that caused 50% reductions in luciferase expression (IC50), using the GraphPad Prism 4 software (maximal viral production in the absence of inhibitor was designated as 100%).

Series [2] relates to JR-FL WT Env-pseudotyped virus. It is filed as cell-based, HIV-1 JR-FL. As to the method:
as §1, §2

The nature of series [3]: Tween 20 aggregate conversion experiments (BN-PAGE). To be noted: Tween 20 0.05%, 10 minutes, room temperature. It is filed as physicochemical. As to the method: Tween® 20 Dose effect: 1 ug of purified KNH1144 SOSIP R6 trimer was incubated with varying concentrations of Tween® 20 (polyoxyethylene sorbitan monolaurate) ranging from 0 to 0.0001% (v/v) and incubated for 1 hour at room temperature. Following incubation, samples were analyzed by BN-PAGE as described above.
Kinetics of Tween® 20 effect: To ascertain the early kinetics of the Tween® 20 effect on aggregate, 1 ug of purified KNH1144 SOSIP R6 trimer was incubated with Tween® 20 at a final concentration of 0.05% (v/v) for 5 minutes and for 10 minutes. A no-detergent control was included separately for each timepoint.
Temperature dependance on Tween® 20 effect: To determine if temperature affected the ability of Tween® 20 to recover trimers from aggregates (i.e., collapse aggregate into trimer), 1 ug of purified KNH1144 SOSIP R6 trimer was incubated with Tween® 20 to a final concentration of 0.05% (v/v) at 0° C. […] Following the incubation, samples were analyzed by BN-PAGE and Coomassie staining.
Following the treatment, samples were analyzed by BN-PAGE and Coomassie staining.
Tween® 20 effect on -2-macroglogulin (a2M): 0.5 ug of purified -2-macroglobulin was either untreated or treated with Tween® 20 at a final concentration of 0.05% for 10 minutes at room temperature. Reactions were analyzed via BN-PAGE, followed by Coomassie staining.

The nature of series [4]: DEAE anion exchange chromatography of Tween 20-treated trimers. It is filed as physicochemical. The note with it: Tween 20 treated (0.05%), TN-75 buffer. The method, then: Purified KNH1144 SOSIP R6 gp140 trimers, treated either with or without 0.05% Tween® 20 (final), containing a2M contaminant in TN-75 buffer was applied over 1 ml DEAE HiTrap FF column (equilibrated in TN-75) at 0.25 ml/min at RT and flow-through (FT) fractions were collected. Following sample loading, the column was washed with TN-75 at 0.5 ml/min and wash fractions were collected. Finally, the column was eluted with TN-300 and equal amounts from each fraction were analyzed via BN-PAGE, followed by Coomassie G-250 staining.

This note sets out measurements from US7939083B2, “Soluble, stabilized, proteolytically cleaved, trimeric HIV-1 gp140 proteins comprising modifications in the N-terminus of the gp41 ectodomain” (Progenics Pharmaceuticals Inc., priority 2006, dated 2011).

Take enfuvirtide: the IC50 (usually the concentration that inhibits the measured activity by half) in series [1] is 11.5 nM; in series [2] (U87.CD4.CCR5 cells, in nM for T-20), 24.2 nM. In addition, the “IC50 against WT Env-pseudotyped virus greater than against the mutant” value in series [2] worked out at 2 fold.

“a2M: acidic 726 kDa tetrameric glycoprotein, contaminant/control protein”: the “effect of Tween 20 on BN-PAGE migration” value in series [3] was “No change was observed in the migratory pattern”. Moreover, the “binding to DEAE column” value in series [4] was “bound to the DEAE column”.
